From patent US5284853A, “Angiotensin II receptor blocking 2,3,6 substituted quinazolinones” (American Cyanamid Company, priority 1993, dated 1994)
Where “and” joins values, the source holds several entries; their conditions need not be identical. Equal values may be shown once.

Tested on: Angiotensin II (AII) vasopressor response
Experiment: AII Challenge: antagonism of the angiotensin II vasopressor response in conscious SHR
Format: in vivo, Spontaneously hypertensive rats (Male okamoto-Aoki SHR)
Details: for Average Change / Inhibition: n = 2; for Change / Control Before AII / Response After AII: per rat
[1] = 5 mg/kg I.V., AII 0.05 mcg/kg IV, 30 min post dose
[2] = 5 mg/kg I.V., AII 0.05 mcg/kg IV, 60 min post dose
[3] = 5 mg/kg I.V., AII 0.05 mcg/kg IV, 90 min post dose
[4] = 5 mg/kg I.V., AII 0.05 mcg/kg IV, 120 min post dose
[5] = 5 mg/kg I.V., AII 0.05 mcg/kg IV, 180 min post dose
[6] = 5 mg/kg I.V., AII 0.1 mcg/kg IV, 30 min post dose
[7] = 5 mg/kg I.V., AII 0.1 mcg/kg IV, 60 min post dose
[8] = 5 mg/kg I.V., AII 0.1 mcg/kg IV, 90 min post dose
[9] = 5 mg/kg I.V., AII 0.1 mcg/kg IV, 120 min post dose
[10] = 5 mg/kg I.V., AII 0.1 mcg/kg IV, 180 min post dose
[11] = 15 mg/kg I.V., AII 0.05 mcg/kg IV, 30 min post dose
[12] = 15 mg/kg I.V., AII 0.05 mcg/kg IV, 60 min post dose
[13] = 15 mg/kg I.V., AII 0.05 mcg/kg IV, 90 min post dose
[14] = 15 mg/kg I.V., AII 0.05 mcg/kg IV, 120 min post dose
[15] = 15 mg/kg I.V., AII 0.05 mcg/kg IV, 180 min post dose
[16] = 15 mg/kg I.V., AII 0.1 mcg/kg IV, 30 min post dose
[17] = 15 mg/kg I.V., AII 0.1 mcg/kg IV, 60 min post dose
[18] = 15 mg/kg I.V., AII 0.1 mcg/kg IV, 90 min post dose
[19] = 15 mg/kg I.V., AII 0.1 mcg/kg IV, 120 min post dose
[20] = 15 mg/kg I.V., AII 0.1 mcg/kg IV, 180 min post dose

CCCCc1nc2ccc(C3CC(c4ccc(C)o4)=NO3)cc2c(=O)n1Cc1ccc(-c2ccccc2-c2nnn[nH]2)cc1 (stereo not shown) [Example 19]
Average Change [1]: 15.5 mmhg | Inhibition [1]: 72% | Change [1]: 11 mmhg and 20 mmhg | Control Before AII [1]: 165 mmhg and 200 mmhg | Response After AII [1]: 176 mmhg and 180 mmhg | Average Change [2]: 15 mmhg | Inhibition [2]: 73% | Change [2]: 20 mmhg and 10 mmhg | Control Before AII [2]: 160 mmhg and 195 mmhg | Response After AII [2]: 180 mmhg and 205 mmhg | Average Change [3]: 20 mmhg | Inhibition [3]: 64% | Change [3]: 25 mmhg and 15 mmhg | Control Before AII [3]: 155 mmhg and 190 mmhg | Response After AII [3]: 180 mmhg and 205 mmhg | Average Change [4]: 25 mmhg | Inhibition [4]: 55% | Change [4]: 35 mmhg and 15 mmhg | Control Before AII [4]: 150 mmhg and 175 mmhg | Response After AII [4]: 185 mmhg and 190 mmhg | Average Change [5]: 25 mmhg | Inhibition [5]: 55% | Change [5]: 33 mmhg and 17 mmhg | Control Before AII [5]: 165 mmhg and 185 mmhg | Response After AII [5]: 198 mmhg and 202 mmhg | Average Change [6]: 17.5 mmhg | Inhibition [6]: 83% | Change [6]: 20 mmhg and 15 mmhg | Control Before AII [6]: 160 mmhg and 205 mmhg | Response After AII [6]: 180 mmhg and 220 mmhg | Average Change [7]: 21 mmhg | Inhibition [7]: 68% | Change [7]: 25 mmhg and 17 mmhg | Control Before AII [7]: 160 mmhg and 193 mmhg | Response After AII [7]: 185 mmhg and 210 mmhg | Average Change [8]: 24 mmhg | Inhibition [8]: 63% | Change [8]: 25 mmhg and 23 mmhg | Control Before AII [8]: 175 mmhg and 187 mmhg | Response After AII [8]: 200 mmhg and 210 mmhg | Average Change [9]: 22.5 mmhg | Inhibition [9]: 65% | Change [9]: 20 mmhg and 25 mmhg | Control Before AII [9]: 165 mmhg and 175 mmhg | Response After AII [9]: 185 mmhg and 200 mmhg | Average Change [10]: 27.5 mmhg | Inhibition [10]: 58% | Change [10]: 25 mmhg and 30 mmhg | Control Before AII [10]: 170 mmhg and 185 mmhg | Response After AII [10]: 195 mmhg and 215 mmhg | Average Change [11]: 5 mmhg | Inhibition [11]: 83% | Change [11]: 0 mmhg and 10 mmhg | Control Before AII [11]: 165 mmhg and 150 mmhg | Response After AII [11]: 165 mmhg and 160 mmhg | Average Change [12]: 10 mmhg | Inhibition [12]: 67% | Change [12]: 10 mmhg | Control Before AII [12]: 155 mmhg and 150 mmhg | Response After AII [12]: 165 mmhg and 160 mmhg | Average Change [13]: 5 mmhg | Inhibition [13]: 83% | Change [13]: 5 mmhg | Control Before AII [13]: 155 mmhg and 150 mmhg | Response After AII [13]: 160 mmhg and 155 mmhg | Average Change [14]: 7.5 mmhg | Inhibition [14]: 75% | Change [14]: 5 mmhg and 10 mmhg | Control Before AII [14]: 150 mmhg | Response After AII [14]: 155 mmhg and 160 mmhg | Average Change [15]: 7.5 mmhg | Inhibition [15]: 75% | Change [15]: 0 mmhg and 15 mmhg | Control Before AII [15]: 160 mmhg and 140 mmhg | Response After AII [15]: 160 mmhg and 155 mmhg | Average Change [16]: 5 mmhg | Inhibition [16]: 89% | Change [16]: 0 mmhg and 10 mmhg | Control Before AII [16]: 165 mmhg and 160 mmhg | Response After AII [16]: 165 mmhg and 170 mmhg | Average Change [17]: 5 mmhg | Inhibition [17]: 89% | Change [17]: 0 mmhg and 10 mmhg | Control Before AII [17]: 165 mmhg and 160 mmhg | Response After AII [17]: 165 mmhg and 170 mmhg | Average Change [18]: 7.5 mmhg | Inhibition [18]: 83% | Change [18]: 10 mmhg and 5 mmhg | Control Before AII [18]: 155 mmhg and 150 mmhg | Response After AII [18]: 165 mmhg and 155 mmhg | Average Change [19]: 7.5 mmhg | Inhibition [19]: 83% | Change [19]: 10 mmhg and 5 mmhg | Control Before AII [19]: 155 mmhg | Response After AII [19]: 165 mmhg and 160 mmhg | Average Change [20]: 10 mmhg | Inhibition [20]: 78% | Change [20]: 0 mmhg and 20 mmhg | Control Before AII [20]: 170 mmhg and 150 mmhg | Response After AII [20]: 170 mmhg
